Experimental data: publication PMC12470768, “Mentha rotundifolia, a Source of Amoebicidal Agents Against Naegleria fowleri” (International Journal of Molecular Sciences, 2025)

Tests used:
[1] = test system: N. fowleri ATCC® 30215™ cyst stage; test: In vitro cysticidal activity against N. fowleri cysts (alamarBlue), strain ATCC 30215; assay type: cell-based; settings: Naegleria fowleri, ATCC30215, mean ± SD
Procedure: (§1) Following the assays against trophozoites, the compounds were further evaluated for their activity against the cyst stage of N. fowleri (ATCC® 30808™ and ATCC® 30215™). To induce cyst formation, the trophozoites were centrifuged, resuspended in MYAS medium, and incubated under slight agitation at room temperature for 10 days. After this, mature cysts were harvested, pretreated with 0.5% SDS, and seeded in a 96-well microtiter plate at 2 × 10^5 cells/mL. The drugs were tested in serial dilutions, and after 24 h of incubation at 37 °C, the medium was replaced with fresh Bactocasitone medium. The colorimetric alamarBlue® assay was used to assess cyst viability, with 10 µL of reagent added to each well. The plates were incubated for an additional 72 h at 37 °C, and fluorescence was measured using the EnSpire® Multimode Plate Reader (PerkinElmer, Madrid, Spain). The results were compared to a negative control (untreated cysts) and a positive control (amphotericin B and miltefosine). The IC50 values were determined through nonlinear regression analysis.

[2] = In vitro cytotoxicity on murine macrophages (alamarBlue); assay type: cell-based; settings: mouse, J774A.1 murine macrophage cell line (ATCC TIB-67), mean ± SD
Procedure: (§2) The in vitro activity of the tested compounds against Naegleria fowleri trophozoites was evaluated using two clinical strains obtained from the American Type Culture Collection (ATCC® 30808™ and ATCC® 30215™). Trophozoites were cultured axenically at 37 °C in 2% (w/v) Bactocasitone medium (Thermo Fisher Scientific, Madrid, Spain), supplemented with 10% (v/v) fetal bovine serum (FBS), […] penicillin G sodium salt, and 0.5 mg/mL streptomycin sulfate (Sigma-Aldrich, Madrid, Spain). For cytotoxicity assessment, murine macrophages from the J774A.1 cell line (ATCC® TIB-67) were cultured in Dulbecco’s Modified Eagle’s Medium (DMEM) supplemented with 10% (v/v) FBS and 10 μg/mL gentamicin sulfate (Sigma-Aldrich, Madrid, Spain). The macrophages were maintained at 37 °C in a 5% CO2 atmosphere.
The cytotoxicity of the compounds was assessed against the murine macrophage cell line J774A.1 (ATCC® TIB-67™). Cells were maintained at 37 °C in a 5% CO2 atmosphere in DMEM medium. In the assay, different concentrations of the compounds were added to the cells in a 96-well microtiter plate, and after 24 h of incubation, 10 µL of alamarBlue® reagent was added. The fluorescence intensity was measured using the EnSpire® Multimode Plate Reader (PerkinElmer, Madrid, Spain). The cytotoxic concentration required to reduce cell viability by 50% (CC50) was determined through nonlinear regression analysis using GraphPad Prism 9 software. The results were compared with those obtained against trophozoites to calculate the selectivity index (S.I.) for N. fowleri.

N. fowleri trophozoites [3] = test: Chromatin condensation (Hoechst 33342 / propidium iodide staining); assay type: cell-based, Naegleria fowleri; settings: IC90, 24 h; for chromatin condensation (Hoechst 33342 fluorescence): compound 7 on ATCC 30808, compound 10 on ATCC 30215, amphotericin B on both
Procedure: (§3) To evaluate the induction of PCD, N. fowleri strains ATCC® 30808™ and ATCC® 30215™ were treated with the IC90 concentration of the compounds 7 and 10 for 24 h at 37 °C. After incubation, specific fluorescent markers were used to assess various detectable metabolic events, following the manufacturers’ instructions for each assay. Amphotericin B was used as a positive control, and untreated amoebae served as a negative control. Fluorescence imaging was performed using EVOS M5000 Cell Imaging System (Life Technologies, Madrid, Spain) and confocal microscope Leica DMI 4000 B equipped with Leica Application Suite X software version 3.5.5.19976 and Leica HC PL APO 63x/1.40 OIL CS2 objective (Leica Microsystems, Wetzlar, Germany). The fluorescence obtained was expressed as mean ± standard deviation from at least three independent experiments.
To evaluate the chromatin condensation, cells were stained with Hoechst 33,342 (1 µM) and propidium iodide (PI) (1 µM) for 20 min in the dark. Hoechst 33,342 binds to condensed chromatin in apoptotic cells and emits blue fluorescence, while PI enters cells with compromised membranes, indicative of late apoptosis or necrosis, and binds to DNA, emitting red fluorescence. […] Untreated cells were included as negative controls to establish baseline fluorescence levels.

[4] = test system: N. fowleri ATCC® 30808™ trophozoites; test: In vitro amoebicidal activity against N. fowleri trophozoites (alamarBlue), strain ATCC 30808; assay type: cell-based, Naegleria fowleri; settings: for IC50 / N. fowleri ATCC 30808 IC50: mean ± SD; for N. fowleri ATCC 30808 SI (CC50/IC50): selectivity index vs murine macrophages J774
Procedure: as §2
(§4) The trophocidal activity of the compounds was evaluated using the alamarBlue® colorimetric assay. N. fowleri trophozoites were seeded in duplicate in a 96-well microtiter plate at a concentration of 2 × 10^5 cells/mL and incubated for adhesion in Bactocasitone medium (2% v/w) (Thermo Fisher Scientific, Madrid, Spain), supplemented with 10% (v/v) fetal bovine serum (FBS), 0.3% penicillin G sodium salt, and 0.5 mg/mL streptomycin sulfate (Sigma-Aldrich, Madrid, Spain). Different concentrations of the evaluated compounds, prepared in fresh Bactocasitone medium, were added to the wells (50 µL per well). The negative control consisted of trophozoites incubated with the medium alone. After adding 10 µL of alamarBlue® reagent, the plates were incubated at 37 °C for 48 h with slight agitation. The data were analyzed using nonlinear regression with GraphPad Prism 9 software to determine the IC50 and IC90 values, which were then used for further studies on PCD [10].

[5] = test system: N. fowleri ATCC® 30215™ trophozoites; test: In vitro amoebicidal activity against N. fowleri trophozoites (alamarBlue), strain ATCC 30215; assay type: cell-based, Naegleria fowleri; settings: trophozoite stage; for IC50: Naegleria fowleri, ATCC30215, 48 h, mean ± SD; for N. fowleri ATCC 30215 SI (CC50/IC50): selectivity index vs murine macrophages J774
Procedure: as §2, §4

[6] = test system: N. fowleri ATCC® 30808™ cyst stage; test: In vitro cysticidal activity against N. fowleri cysts (alamarBlue), strain ATCC 30808; assay type: cell-based, Naegleria fowleri; settings: for IC50: Naegleria fowleri, ATCC30808, mean ± SD
Procedure: as §1

N. fowleri trophozoites [7] = test: Plasma membrane permeability (SYTOX Green); assay type: cell-based, Naegleria fowleri; settings: IC90, 24 h; compound 7 on ATCC 30808, compound 10 on ATCC 30215, amphotericin B on both
Procedure: as §3
After treatment, SYTOX™ Green nucleic acid stain (Life Technologies, Madrid, Spain) was added to each well at a final concentration of 1 μg/mL and incubated for 15 min in the dark. […] In contrast, viable cells with intact membranes exclude the dye and remain non-fluorescent. Untreated trophozoites were used as negative controls.

N. fowleri trophozoites [8] = test: Intracellular reactive oxygen species (CellROX Deep Red); assay type: cell-based, Naegleria fowleri; settings: IC90, 24 h; compound 7 on ATCC 30808 (p < 0.05), compound 10 on ATCC 30215 (p < 0.01)
Procedure: as §3
The oxidative stress induced by the generation of ROS in N. fowleri was evaluated using the CellROX® Deep Red reagent (Invitrogen, Thermo Fisher Scientific, Madrid, Spain). Following incubation, cells were stained with the dye at a final concentration of 5 μM and then incubated for an additional 30 min. The reagent enters cells in response to elevated ROS levels, emitting red fluorescence at approximately 644/665 nm. Increased fluorescence intensity indicated higher levels of ROS accumulation, reflecting elevated oxidative stress in the treated cells.

N. fowleri trophozoites [9] = test: Intracellular ATP levels (CellTiter-Glo); assay type: cell-based, Naegleria fowleri; settings: treated with IC90, 24 h; negative control set as 100% ATP
Procedure: as §3
Adenosine triphosphate (ATP) production was quantified using the CellTiter-Glo® luminescent cell viability assay (Promega, Madrid, Spain). Amoebae were treated with the compounds, and an equal volume of reagent was added per well. Following cell lysis, the emitted luminescence, which is directly proportional to ATP content, was measured using the EnSpire® Multimode Plate Reader (PerkinElmer, Madrid, Spain). […]

N. fowleri trophozoites [10] = test: Autophagic vacuole formation (monodansylcadaverine); assay type: cell-based, Naegleria fowleri; settings: IC90, 24 h
Procedure: as §3
Autophagy is a vital cellular process involved in the degradation and recycling of intracellular components, often activated in response to drug exposure. To evaluate autophagic activity, trophozoites were stained with monodansylcadaverine (MDC) (Sigma-Aldrich, St. Louis, MO, USA) during 30 min in the dark. […] The dye emits a characteristic cyan-blue fluorescence, allowing the detection and qualitative analysis of autophagic vacuoles in treated cells.

N. fowleri trophozoites [11] = test: Mitochondrial membrane potential (JC-1); assay type: cell-based, Naegleria fowleri; settings: IC90, 24 h; compound 7 on ATCC 30808, compound 10 on ATCC 30215
Procedure: as §3
Mitochondrial membrane potential (ΔΨm) was assessed using the JC-1 dye (1,1′,3,3′-tetraethyl-5,5′,6,6′-tetrachloroimidacarbocyanine iodide; Cayman Chemical, Madrid); following treatment, cells were harvested by centrifugation at 2500 rpm for 10 min and resuspended in JC-1 assay buffer. […] In cells with depolarized mitochondria, JC-1 remains in its monomeric form, emitting green fluorescence (emission at ~535 nm), indicating mitochondrial damage and a loss of ΔΨm.

N. fowleri trophozoites [12] = test: Cytoskeletal integrity (phalloidin-TRITC actin staining); assay type: cell-based, Naegleria fowleri; settings: IC90; compound 7 on ATCC 30808, compound 10 on ATCC 30215
Procedure: as §3
Cytoskeletal disruption in treated amoebae was evaluated by staining with phalloidin conjugated to tetramethylrhodamine B isothiocyanate (phalloidin- TRITC), which binds specifically to filamentous actin, emitting red fluorescence. DAPI staining was used in parallel to visualize nuclear DNA, emitting blue fluorescence. […] Following washing with PBS, fluorescence images were captured with a 63x oil immersion objective.

[13] = Naegleria fowleri, ATCC30808, 48 h, trophozoite stage, 48 h
[14] = Naegleria fowleri, ATCC30808, trophozoites, extracts, fractions, subfractions, isolated compound and reference drugs

Compound | IC50 [1] [µM] | CC50 at 24 h [2] [µM] | chromatin condensation (Hoechst 33342 fluorescence) (N. fowleri trophozoites [3]) | IC50 [4, 13] [µM] | IC50 [4, 14] [µg/mL] | N. fowleri ATCC 30808 SI (CC50/IC50) ([4]; trophozoite stage) | N. fowleri ATCC 30808 IC50 ([4]; trophozoites, extracts, fractions, subfractions, isolated compound and reference drugs, listed as A) [µg/mL] | IC50 [5] [µM] | N. fowleri ATCC 30215 SI (CC50/IC50) [5] | IC50 [6] [µM] | plasma membrane integrity (SYTOX Green fluorescence) (N. fowleri trophozoites [7]) | N. fowleri ATCC 30808 IC50 ([4]; trophozoites, extracts, fractions, subfractions, isolated compound and reference drugs, listed as UA (1)) [µg/mL] | intracellular ROS accumulation (CellROX Deep Red) (N. fowleri trophozoites [8]) | inhibition of ATP levels compared to the negative control (N. fowleri trophozoites [9]) [%] | propidium iodide (red) fluorescence (N. fowleri trophozoites [3]; compound 7 on ATCC 30808) | IC90 ([4]; Naegleria fowleri, ATCC30808, trophozoites, compound 7 used on ATCC 30808 (Figure 8 legend)) [µM] | autophagic vesicles (MDC staining) (N. fowleri trophozoites [10]) | mitochondrial membrane potential (JC-1) (N. fowleri trophozoites [11]) | actin cytoskeleton (phalloidin-TRITC) (N. fowleri trophozoites [12]) | N. fowleri ATCC 30808 SI (CC50/IC50), cyst stage ([6]; selectivity index vs murine macrophages J774)
C[C@@H]1[C@H](O)[C@@H](C)/C=C/C=C/C=C/C=C/C=C/C=C/C=C/[C@H](O[C@@H]2O[C@H](C)[C@@H](O)[C@H](N)[C@@H]2O)C[C@@H]2O[C@](O)(C[C@@H](O)C[C@@H](O)[C@H](O)CC[C@@H](O)C[C@@H](O)CC(=O)O[C@H]1C)C[C@H](O)[C@H]2C(=O)O [Amphotericin B, reference compound] | 0.62 ± 0.04 | > 200 | clear chromatin condensation | 0.12 ± 0.03 | 0.18 | >1650.89 | 0.162 ± 0.002 | 0.16 ± 0.01 | >1250 | 0.53 ± 0.03 | bright green fluorescence | – | – | – | – | – | – | – | – | –
C[C@H]1[C@H](C)CC[C@]2(C(=O)O)CC[C@]3(C)C(=CC[C@@H]4[C@@]5(C)CC[C@H](O)C(C)(C)[C@@H]5CC[C@]43C)[C@H]12 [Compound 1, ursolic acid] | – | 35.9 ± 9.28 | – | 142 ± 8.17 | 65.9 | – | – | 82.5 ± 8.43 | 0.43 | – | – | 65.91 ± 3.73 | – | – | – | – | – | – | – | –
COC(=O)[C@]12CC[C@@H](C)[C@H](C)[C@H]1C1=CC[C@@H]3[C@@]4(C)CC[C@H](O)C(C)(C)[C@@H]4CC[C@@]3(C)[C@]1(C)CC2 [Compound 2, methyl ursolate] | – | 49.6 ± 5.65 | – | 88.7 ± 3.02 | – | 1.12 | – | 84.5 ± 6.31 | – | – | – | – | – | – | – | – | – | – | – | –
COC(=O)[C@]12CC[C@@H](C)[C@H](C)C1C1=CCC3[C@@]4(C)CC[C@H](OC(=O)CCC(=O)O)C(C)(C)C4CC[C@@]3(C)[C@]1(C)CC2 (stereo partly drawn) [Compound 7, 3-O-(Hemisuccinyl)-methyl ursolate] | 28 ± 1.59 | > 175 | clear chromatin condensation | 28.7 ± 1.8 | – | >6.11 | – | 29.7 ± 1.59 | >5.90 | 36.6 ± 1.49 | significant membrane disruption | – | significantly increased ROS | 89.5 | strong red fluorescence | 39.5 | autophagosome formation | marked decrease in mitochondrial membrane potential | reduced actin signal intensity | 4.78
COC(=O)[C@]12CC[C@@H](C)[C@H](C)C1C1=CCC3[C@@]4(C)CC[C@H](OC(=O)CCCC(=O)O)C(C)(C)C4CC[C@@]3(C)[C@]1(C)CC2 (stereo partly drawn) [Compound 8, 3-O-(Hemiglutaryl)-methyl ursolate] | – | 85 ± 5 | – | 66.6 ± 9.25 | – | 1.24 | – | 38.7 ± 2.15 | 2.20 | – | – | – | – | – | – | – | – | – | – | –
CCCCCCCCCCCCCCCCOP(=O)([O-])OCC[N+](C)(C)C [Miltefosine, reference compound] | 37.8 ± 5.6 | 128 ± 8.85 | – | 38.7 ± 4.23 | 12.7 ± 1.49 | 3.30 | – | 81.6 ± 7.23 | 1.57 | 21.5 ± 2.62 | – | – | – | – | – | – | – | – | – | –
